# Assay results as given in patent US10017504B2, “Piperidine isoxazole and isothiazole orexin receptor antagonists” (MERCK SHARP & DOHME CORP., priority 2014, dated 2018).
# pIC50: −log10 of the molar value.
# Molecular target: human orexin-2 receptor (Homo sapiens (Human), UniProt O43614)
# Test: FLIPR Ca2+ Flux Assay, orexin-2 receptor
# Format: cell-based
# Details: CHO cells expressing the human orexin-2 receptor; agonist 70 pM Ala-6,12 human orexin-A; read-out: hOX2 FLIPR IC50
# Method: In a typical experiment the OX1 and OX2 receptor antagonistic activity of the compounds of the present invention was determined in accordance with the following experimental method. For intracellular calcium measurements, Chinese hamster ovary (CHO) cells expressing the rat orexin-1 receptor or the human orexin-2 receptor, are grown in Iscove's modified DMEM containing 2 mM L-glutamine, […], 1% hypoxanthine-thymidine supplement, 100 U/ml penicillin, 100 μg/ml streptomycin and 10% heat-inactivated fetal calf serum (FCS). The cells are seeded at 20,000 cells/well into Becton-Dickinson black 384-well clear bottom sterile plates coated with poly-D-lysine. All reagents are from GIBCO-Invitrogen Corp. The seeded plates are incubated overnight at 37° C. and 5% CO2. Ala-6,12 human orexin-A as the agonist is prepared as a 1 mM stock solution in 1% bovine serum albumin (BSA) and diluted in assay buffer (HBSS containing 20 mM HEPES, 0.1% BSA and 2.5 mM probenecid, pH7.4) for use in the assay at a final concentration of 70 pM. Test compounds are prepared as 10 mM stock solution in DMSO, then diluted in 384-well plates, first in DMSO, then assay buffer. On the day of the assay, cells are washed 3 times with 100 μl assay buffer and then incubated for 60 min (37° C., 5% CO2) in 60 μl assay buffer containing 1 μM Fluo-4AM ester, 0.02% pluronic acid, and 1% BSA. The dye loading solution is then aspirated and cells are washed 3 times with 100 μl assay buffer. 30 μl of that same buffer is left in each well. Within the Fluorescent Imaging Plate Reader (FLIPR, Molecular Devices), test compounds are added to the plate in a volume of 25 μl, incubated for 5 min and finally 25 μl of agonist is added. Fluorescence is measured for each well at 1 second intervals for 5 minutes and the height of each fluorescence peak is compared to the height of the fluorescence peak induced by 70 pM Ala-6,12 orexin-A with buffer in place of antagonist. […] The intrinsic orexin receptor antagonist activity of a compound which may be used in the present invention may be determined by these assays.
# Chain of human orexin-2 receptor (O43614 whole entry): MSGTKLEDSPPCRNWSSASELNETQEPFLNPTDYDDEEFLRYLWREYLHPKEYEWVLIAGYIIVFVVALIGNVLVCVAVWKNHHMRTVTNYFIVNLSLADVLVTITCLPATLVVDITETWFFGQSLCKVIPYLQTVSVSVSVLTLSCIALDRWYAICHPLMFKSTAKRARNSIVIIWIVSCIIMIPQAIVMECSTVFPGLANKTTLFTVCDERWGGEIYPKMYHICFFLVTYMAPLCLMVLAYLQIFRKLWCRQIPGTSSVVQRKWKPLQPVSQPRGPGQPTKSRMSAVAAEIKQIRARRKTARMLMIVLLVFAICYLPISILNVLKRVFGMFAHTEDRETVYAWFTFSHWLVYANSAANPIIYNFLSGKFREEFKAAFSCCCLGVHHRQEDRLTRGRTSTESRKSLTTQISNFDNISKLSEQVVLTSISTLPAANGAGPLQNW
row,SMILES,pIC50
1,"C[C@@H]1CC[C@@H](c2cc(C(C)(C)O)no2)CN1C(=O)c1cc(Cl)ccc1-n1nccn1 [Example 27, 2-{5-[(3R,6R)-1-{[5-Chloro-2-(2H-1,2,3-triazol-2-yl)phenyl]carbonyl}-6-methylpiperidin-3-yl]isoxazol-3-yl}propan-2-ol]",6.22
2,"COCc1ccccc1C(=O)N1C[C@H](c2cc(C(C)(C)O)no2)CC[C@H]1C [Example 21, 2-{5-[(3R,6R)-1-{[2-(Methoxymethyl)phenyl]carbonyl}-6-methylpiperidin-3-yl]isoxazol-3-yl}propan-2-ol]",5.95
3,"COC(=O)c1ccccc1C(=O)N1C[C@H](c2cc(C(C)(C)O)sn2)CC[C@H]1C [Example 67, Methyl 2-({(2R,5R)-5-[5-(1-hydroxy-1-methylethyl)isothiazol-3-yl]-2-methylpiperidin-1-yl}carbonyl)benzoate]",7.36
4,"C[C@@H]1CC[C@@H](c2cc(C(C)(C)O)sn2)CN1C(=O)c1ccccc1-c1ncccn1 [Example 63, 2-(3-{(3R,6R)-6-Methyl-1-[(2-pyrimidin-2-ylphenyl)carbonyl]piperidin-3-yl}isothiazol-5-yl)propan-2-ol]",7.37
5,"C[C@@H]1CC[C@@H](c2cc(C(C)(C)O)sn2)CN1C(=O)c1ccccc1-n1nccn1 [Example 58, 2-{3-[(3R,6R)-6-Methyl-1-{[2-(2H-1,2,3-triazol-2-yl)phenyl]carbonyl}piperidin-3-yl]isothiazol-5-yl}propan-2-ol]",7.86
6,"C[C@@H]1CC[C@@H](c2cc(C(C)(C)O)no2)CN1C(=O)c1ccccc1-n1nccn1 [Example 20, 2-{5-[(3R,6R)-6-Methyl-1-{[2-(2H-1,2,3-triazol-2-yl)phenyl]carbonyl}piperidin-3-yl]isoxazol-3-yl}propan-2-ol]",7.52
7,"C[C@@H]1CC[C@@H](c2cc([C@H](O)C(F)(F)F)no2)CN1C(=O)c1ccsc1-c1ncccn1 [Example 48, (1S)-2,2,2-Trifluoro-1-(5-{(3R,6R)-6-methyl-1-[(2-pyrimidin-2-ylthiophen-3-yl)carbonyl]piperidin-3-yl}isoxazol-3-yl)ethanol]",6.95
8,"COCCc1ccccc1C(=O)N1C[C@H](c2cc(C(C)(C)O)sn2)CC[C@H]1C [Example 70, 2-{3-[(3R,6R)-1-{[2-(2-methoxyethyl)phenyl]carbonyl}-6-methylpiperidin-3-yl]isothiazol-5-yl}propan-2-ol]",6.03
